Test results: patent US10081629B2, “Amide derivatives and pharmaceutically acceptable salts thereof, preparation method thereof and medicinal application thereof” (Shanghai Hengrui Pharmaceutical Co., Ltd., priority 2014, dated 2018)

Legend:
human mPGES1 = human mPGES1 (Homo sapiens (Human), UniProt O14684); experiment: Inhibition activity for human mPGES1 (enzyme assay, PGE2 HTRF); assay type: biochemical; conditions: membrane protein from HEK-293 F transfected with human mPGES1
Procedure: The method described here is used for determining the inhibition activity of the present compounds for human mPGES1.
• 1. PGE2 Assay kit (Cisbio, #62P2APEB) • 2. Prostaglandin H2 (Sigma, #P7867-1MG) • 3. FlexStation3 microplate reader. II. Experimental Procedure • 1. Obtaining the membrane proteins of mPGES1 enzyme
The cell density of HEK-293 F was grown to 6×10^5 per milliliter and was transferred with the plasmid containing human mPGES1 gene by transfection reagent PEI the next day. The cells were continuously cultured for 72 hours at 37° C. with shaking. After centrifuging at 1100 g for 5 minutes, the cells were harvested. After ultrasonication in an ice bath and centrifugation at 5000 g for 10 minutes, the supernatant was obtained. The supernatant was centrifuged at 100000 g for 1 hour to obtain a precipitate. The precipitate was resuspended with storage buffer containing 10% glycerinum, subpackaged and frozen rapidly under liquid nitrogen, and stored at −80° C. • 2. mPGES1 enzyme assay
mPGES1 was diluted with assay buffer and added into plate at 49 μL/well supplemented with 1 μL of compound (the final concentration of each compound at seven gradient concentrations was 10000 nM, 1000 nM, 100 nM, 10 nM, 1 nM, 0.1 nM and 0.01 nM). […] Then, each well was added with 53.8 μL of 6 mg/mL SnCl2 to quench the reaction. The sample was diluted with dilute buffer at 1:400. 10 μl of diluted sample, 5 μL PGE2-d2 and 5 μL anti-PGE2 Cryptate were added to a black 384-well plate, and incubated at 4° C. overnight. HTRF was determined using Flexstation, and the IC50 of the compounds was obtained by data processing software.
The inhibition activity of the present compounds on mPGES1 was tested by the assay described above.

[1] = test system: secretion of PGE2 by A549 cells stimulated with IL-1β; experiment: Inhibition of the secretion of PGE2 by A549 cells stimulated with IL-1β; assay type: cell-based; conditions: IL-1β 0.2 ng/mL, 24 hours
Source text: The method described here was used for determining the inhibition activity of the present compounds on the secretion of PGE2 by A549 cells stimulated with IL-1β.
• 1. PGE2 Assay kit (Cisbio, #62P2APEB) • 2. IL-1β (Peprotech, # AF-200-01B) • 3. Cell line: A549 (ATCC: CCL-185) • 4. FlexStation3 microplate reader. II. Experimental Procedure
On the first day, A549 cells were inoculated in a 96-well plate at 40000/well. On the second day, the culture medium in the 96-well plate was removed and then added with 90 μL of compound diluted with culture medium (the concentration of each compound at seven gradient concentrations was 11111 nM, […], 1.11 nM, 0.11 nM and 0.011 nM). The cells were incubated for 30 minutes at 37° C. in an incubator, and then added with IL-1β to a final concentration of 0.2 ng/mL. Then, the cells were incubated for another 24 hours at 37° C. On the third day, 10 μl of supernatant, 5 μL of PGE2-d2 and 5 μL of anti-PGE2 Cryptate were added into a black 384-well plate, and then incubated at 4° C. overnight. HTRF was determined using Flexstation, and the IC50 of the compounds was obtained by data processing software.
The inhibition activity of the present compounds on the secretion of PGE2 by A549 cells stimulated with IL-1β was determined by the assay described above.

human mPGES1, sequence (O14684 whole entry): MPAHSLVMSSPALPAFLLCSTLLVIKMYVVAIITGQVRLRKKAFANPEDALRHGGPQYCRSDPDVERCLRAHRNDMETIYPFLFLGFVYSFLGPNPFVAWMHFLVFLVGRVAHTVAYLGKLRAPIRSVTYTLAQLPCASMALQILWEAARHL

Compound	IC50 (human mPGES1) [nM]	IC50 ([1]; Homo sapiens, A549) [nM]	IC50 [1] [nM]
Cn1c(-c2ccc(Cl)cc2)nc2cc(NC(=O)c3cc(CNC(=O)C(C)(C)C)ccc3Cl)ccc21 [Example 55, 2-Chloro-N-(2-(4-chlorophenyl)-1-methyl-1H-benzo[d]imidazol-5-yl)-5-((2,2-dimethylpropanoylamino)methyl)benzamide]	29.8	–	–
CC(C)(F)C(=O)NCc1cnc(C(F)F)c(C(=O)Nc2ccc3c(c2)CN(c2ccc(C(F)(F)F)cc2)C3)c1 [Example 26, 2-(Difluoromethyl)-5-(((2-fluoro-2-methyl-propanoyl)amino)methyl)-N-(2-(4-(trifluoromethyl)phenyl)isoindolin-5-yl)nicotinamide]	3.38	46	–
CCn1c(-c2ccc(F)cc2)cc2cc(NC(=O)c3cc(CNC(=O)C(C)(C)C)ccc3Br)ccc21 [Example 7, 2-Bromo-N-(1-ethyl-2-(4-fluorophenyl)-1H-indol-5-yl)5-((2,2-dimethylpropanoylamino)methyl)-benzamide]	–	10.4	–
Cn1c(-c2ccc(F)cc2)cc2cc(NC(=O)c3cc(CNC(=O)C4(C(F)(F)F)CC4)ccc3Cl)ccc21 [Example 34, 2-Chloro-N-(2-(4-fluorophenyl)-1-methyl-1H-indol-5-yl)-5-(((1-(trifluoromethyl)cyclopropanecarbonyl)amino)methyl)benzamide]	7.75	12.2	–
Cn1c(-c2ccc(Cl)cc2)cc2cc(NC(=O)c3cc(CNC(=O)C(C)(C)F)cnc3C(F)F)ccc21 [Example 18, N-(2-(4-Chlorophenyl)-1-methyl-1H-indol-5-yl)-2-(difluoromethyl)-5-(((2-fluoro-2-methyl-propanoyl)amino)methyl)nicotinamide]	5.15	–	17.2
CC(C)C(=O)NCc1cnc(C(F)F)c(C(=O)Nc2ccc3c(c2)cc(-c2ccc(C(F)(F)F)cc2)n3C)c1 [Example 9, 2-(difluoromethyl)-N-(1-methyl-2-(4-(trifluoromethyl)phenyl)-1H-indol-5-yl)5-((2-methylpropanoylamino)methyl)-nicotinamide]	15.6	11.8	–
CCn1c(-c2ccc(Cl)cc2)cc2cc(NC(=O)c3cc(CNC(=O)C4(C)CC4)cnc3C(F)F)ccc21 [Example 42, N-(2-(4-Chlorophenyl)-1-ethyl-1H-indol-5-yl)-2-(difluoromethyl)-5-(((1-methylcyclopropanecarbonyl)amino)methyl)nicotinamide]	7.21	–	–
CC1(C(=O)NCc2cnc(C(F)F)c(C(=O)Nc3ccc4oc(-c5ccc(C(F)(F)F)cc5)nc4c3)c2)CC1 [Example 43, 2-(Difluoromethyl)-5-(((1-methylcyclopropanecarbonyl)amino)methyl)-N-(2-(4-(trifluoromethyl)phenyl)benzo[d]oxazol-5-yl)nicotinamide]	16	58.2	–
CC(C)(F)C(=O)NCc1cnc(C(F)F)c(C(=O)Nc2ccc3oc(-c4ccc(C(F)(F)F)cc4)nc3c2)c1 [Example 23, 2-(Difluoromethyl)-5-(((2-fluoro-2-methyl-propanoyl)amino)methyl)-N-(2-(4-(trifluoromethyl)phenyl)benzo[d]oxazol-5-yl)nicotinamide]	4.73	49	–
CC(C)(F)C(=O)NCc1cnc(C(F)F)c(C(=O)Nc2ccc3c(c2)CN(c2cccc(C(F)(F)F)c2)C3)c1 [Example 49, 2-(Difluoromethyl)-5-(((2-fluoro-2-methyl-propanoyl)amino)methyl)-N-(2-(3-(trifluoromethyl)phenyl)isoindolin-5-yl)nicotinamide]	8.29	24	–
CCn1c(-c2ccc(F)cc2)cc2cc(NC(=O)c3cc(CNC(=O)C(C)C)cnc3C(F)F)ccc21 [Example 5, 2-(Difluoromethyl)-N-(1-ethyl-2-(4-fluorophenyl)-1H-indol-5-yl)-5-((2-methylpropanoylamino)methyl)nicotinamide]	22	12.4	–
CC(C)C(=O)NCc1cnc(C(F)F)c(C(=O)Nc2ccc3c(c2)CN(c2ccc(C(F)(F)F)cc2)C3)c1 [Example 40, 2-(Difluoromethyl)-5-((2-methylpropanoylamino)methyl)-N-(2-(4-(trifluoromethyl)phenyl)isoindolin-5-yl)nicotinamide]	22.4	16.9	–
CC(C)(C)C(=O)NCc1ccc(Cl)c(C(=O)Nc2ccc3c(c2)C(=O)N(c2ccc(C(F)(F)F)cc2)C3)c1 [Example 58]	8.51	2.18	–
CC(C)C(=O)NCc1cnc(C(F)F)c(C(=O)Nc2ccc3c(c2)cc(-c2ccc(Cl)cc2)n3C)c1 [Example 13, N-(2-(4-chlorophenyl)-1-methyl-1H-indol-5-yl)-2-(difluoromethyl)-5-((2-methylpropanoylamino)methyl)nicotinamide]	7.43	16.7	–
CCn1c(-c2ccc(C(F)(F)F)cc2)cc2cc(NC(=O)c3cc(CNC(=O)C(C)C)cnc3C(F)F)ccc21 [Example 1, 2-(difluoromethyl)-N-(1-ethyl-2-(4-(trifluoromethyl)phenyl)-1H-indol-5-yl)-5-((2-methylpropanoylamino)methyl)nicotinamide]	8.26	3.55	–
CC(C)(C)C(=O)NCc1ccc(Cl)c(C(=O)Nc2ccc3c(c2)C(=O)N(c2ccc(Cl)cc2)C3)c1 [Example 57, 2-Chloro-N-(2-(4-chlorophenyl)-3-oxo-isoindolin-5-yl)-5-((2,2-dimethylpropanoylamino)methyl)benzamide]	6.75	6.22	–
Cn1c(-c2ccc(Cl)cc2)cc2cc(NC(=O)c3cc(CNC(=O)C4(C(F)(F)F)CC4)cnc3C(F)F)ccc21 [Example 21, N-(2-(4-Chlorophenyl)-1-methyl-1H-indol-5-yl)-2-(difluoromethyl)-5-(((1-(trifluoromethyl)cyclopropanecarbonyl)amino)methyl)nicotinamide]	8.24	57.4	–
CC(C)C(=O)NCc1cnc(C(F)F)c(C(=O)Nc2ccc3oc(-c4ccc(C(F)(F)F)cc4)cc3c2)c1 [Example 39, 2-(Difluoromethyl)-5-((2-methylpropanoylamino)methyl)-N-(2-(4-(trifluoromethyl)phenyl)benzofuran-5-yl)nicotinamide]	3.68	30.5	–
CC(C)(F)C(=O)NCc1cnc(C(F)F)c(C(=O)Nc2ccc3oc(-c4cccc(C(F)(F)F)c4)nc3c2)c1 [Example 56, 2-(Difluoromethyl)-5-(((2-fluoro-2-methyl-propanoyl)amino)methyl)-N-(2-(3-(trifluoromethyl)phenyl)benzo[d]oxazol-5-yl)nicotinamide]	7.74	27.5	–
CCn1c(-c2ccc(Cl)cc2)nc2cc(NC(=O)c3cc(CNC(=O)C(C)(C)C)ccc3Cl)ccc21 [Example 52, 2-Chloro-N-(2-(4-chlorophenyl)-1-ethyl-1H-benzo[d]imidazol-5-yl)-5-((2,2-dimethylpropanoylamino)methyl)benzamide]	–	55.2	–
CCn1c(-c2ccc(F)cc2)cc2cc(NC(=O)c3cc(CNC(=O)C(C)(C)C)ccc3Cl)cnc21 [Example 4, 2-Chloro-N-(1-ethyl-2-(4-fluorophenyl)-1H-pyrrolo[2,3-b]pyridin-5-yl)-5-((2,2-dimethylpropanoylamino)methyl)-benzamide]	–	26.9	–
CCn1cc(-c2ccc(F)cc2)c2cc(NC(=O)c3cc(CNC(=O)C(C)(C)C)ccc3Br)ccc21 [Example 6, 2-Bromo-N-(1-ethyl-3-(4-fluorophenyl)-1H-indol-5-yl)-5-((2,2-dimethylpropanoylamino)methyl)-benzamide]	–	68.1	–
CC1(C(=O)NCc2ccc(Cl)c(C(=O)Nc3ccc4oc(-c5ccc(C(F)(F)F)cc5)nc4c3)c2)CC1 [Example 41, 2-Chloro-5-(((1-methylcyclopropanecarbonyl)amino)methyl)-N-(2-(4-(trifluoromethyl)phenyl)benzo[d]oxazol-5-yl)benzamide]	25.6	–	–
